In ChEMBL document CHEMBL1201862, “PubChem BioAssay data set” (2004):
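Grown in 96-well plates, cells were treated for 48 hours with each compound at five concentrations. Insufficient inhibition: endpoint recorded as highest concentration tested. GI50: concentration for 50% inhibition of growth.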 Calls of active or inactive are those of the source. Rule as the data show it: active = GI50 up to about 1.1 µM and inactive = higher.

Legend:
Experiment in all cases: NCI anticancer screen, dose series, 48 h
PC-3 = system: PC-3
OVCAR-5 = system: OVCAR-5
RPMI-8226 = system: RPMI-8226
NCI-H23 = system: NCI-H23
SR = system: SR
OVCAR-3 = system: OVCAR-3
U-251 = system: U-251
SN12C = system: SN12C
T47D = system: T47D
M14 = system: M14
MDA-N = system: MDA-N
IGROV-1 = system: IGROV-1
NCI/ADR-RES = system: NCI/ADR-RES
Malme-3M = system: Malme-3M
HCT-116 = system: HCT-116
NCI-H522 = system: NCI-H522
SK-MEL-28 = system: SK-MEL-28
BT-549 = system: BT-549
MDA-MB-231 = system: MDA-MB-231
RXF 393 = system: RXF 393

Measured: GI50

CCCC(=O)Nc1ccc2c(c1)CN1C(=O)c3ccccc3C1=N2
inactive: PC-3 > 100 µM | OVCAR-5 > 100 µM | RPMI-8226 > 100 µM | NCI-H23 > 100 µM | SR > 100 µM | OVCAR-3 > 100 µM | U-251 > 100 µM | SN12C > 100 µM | T47D > 100 µM | M14 > 100 µM | MDA-N > 100 µM | IGROV-1 > 100 µM | NCI/ADR-RES > 100 µM | Malme-3M > 100 µM | HCT-116 > 100 µM | NCI-H522 > 100 µM | SK-MEL-28 > 100 µM | BT-549 > 100 µM | MDA-MB-231 > 100 µM

Nc1nc(Cl)cc(Nc2ccc3c(c2)CCC3)n1
inactive: PC-3 61.2 µM | OVCAR-5 > 100 µM | RPMI-8226 19.7 µM | NCI-H23 > 100 µM | SR 17.4 µM | OVCAR-3 > 100 µM | U-251 > 100 µM | SN12C 80.2 µM | T47D > 100 µM | M14 > 100 µM | MDA-N > 100 µM | IGROV-1 41.5 µM | NCI/ADR-RES 28.6 µM | Malme-3M > 100 µM | HCT-116 43.8 µM | NCI-H522 45.4 µM | SK-MEL-28 > 100 µM | BT-549 > 100 µM | MDA-MB-231 52 µM

CCN1CCc2sc3nc(S)n(C)c(=O)c3c2C1
inactive: PC-3 > 100 µM | RXF 393 > 100 µM | OVCAR-5 > 100 µM | RPMI-8226 > 100 µM | NCI-H23 > 100 µM | OVCAR-3 > 100 µM | U-251 > 100 µM | SN12C > 100 µM | T47D > 100 µM | M14 > 100 µM | MDA-N > 100 µM | IGROV-1 > 100 µM | NCI/ADR-RES > 100 µM | Malme-3M > 100 µM | HCT-116 > 100 µM | NCI-H522 > 100 µM | SK-MEL-28 > 100 µM | BT-549 > 100 µM | MDA-MB-231 > 100 µM

COc1cc2oc(=O)ccc2cc1C(=O)CC(C)C
inactive: PC-3 > 100 µM | OVCAR-5 > 100 µM | RPMI-8226 > 100 µM | NCI-H23 > 100 µM | SR 62.4 µM | OVCAR-3 > 100 µM | U-251 > 100 µM | SN12C > 100 µM | T47D > 100 µM | M14 > 100 µM | MDA-N > 100 µM | IGROV-1 > 100 µM | NCI/ADR-RES 66.4 µM | HCT-116 > 100 µM | NCI-H522 23.6 µM | SK-MEL-28 > 100 µM | BT-549 71.4 µM | MDA-MB-231 > 100 µM

O=C(O)c1cc(CCc2cc(O)ccc2O)ccc1O
inactive: PC-3 > 100 µM | RXF 393 > 100 µM | OVCAR-5 > 100 µM | RPMI-8226 > 100 µM | NCI-H23 > 100 µM | SR > 100 µM | OVCAR-3 > 100 µM | U-251 > 100 µM | SN12C > 100 µM | T47D > 100 µM | M14 > 100 µM | MDA-N 14 µM | IGROV-1 > 100 µM | NCI/ADR-RES > 100 µM | Malme-3M > 100 µM | HCT-116 > 100 µM | NCI-H522 > 100 µM | SK-MEL-28 > 100 µM | BT-549 > 100 µM

CC(=O)/C=C(/C=N/O)c1ccccc1
inactive: PC-3 > 100 µM | OVCAR-5 > 100 µM | RPMI-8226 > 100 µM | NCI-H23 > 100 µM | SR > 100 µM | OVCAR-3 > 100 µM | U-251 > 100 µM | SN12C > 100 µM | T47D > 100 µM | M14 > 100 µM | MDA-N > 100 µM | IGROV-1 > 100 µM | NCI/ADR-RES > 100 µM | Malme-3M > 100 µM | HCT-116 > 100 µM | NCI-H522 > 100 µM | SK-MEL-28 > 100 µM | BT-549 > 100 µM | MDA-MB-231 > 100 µM

NC1C/C(=N\O)c2c(Cl)sc(Cl)c21 (stereo not given)
inactive: PC-3 20.8 µM | OVCAR-5 21.7 µM | RPMI-8226 10.2 µM | NCI-H23 17.1 µM | SR 20.1 µM | OVCAR-3 17.3 µM | SN12C 19.1 µM | T47D 18.7 µM | M14 16.8 µM | MDA-N 18 µM | IGROV-1 17 µM | NCI/ADR-RES 25.6 µM | Malme-3M 19.5 µM | HCT-116 3.96 µM | SK-MEL-28 19.3 µM | BT-549 18.5 µM

N#CCc1nc2cc(C(F)(F)F)ccc2s1
inactive: RXF 393 52.2 µM | OVCAR-5 > 100 µM | RPMI-8226 29.4 µM | NCI-H23 27.7 µM | OVCAR-3 18.3 µM | U-251 38.7 µM | SN12C 45.5 µM | T47D 23.1 µM | MDA-N 32.2 µM | NCI/ADR-RES 55.7 µM | Malme-3M 42.6 µM | HCT-116 26.7 µM | NCI-H522 11.1 µM | BT-549 31 µM | MDA-MB-231 95.1 µM

O=C(CCc1ccccc1)ON1C(=S)NC(c2ccccc2)(c2ccccc2)C1=S
inactive: PC-3 23.4 µM | RXF 393 36 µM | OVCAR-5 61.4 µM | RPMI-8226 29.1 µM | NCI-H23 30.3 µM | OVCAR-3 29 µM | U-251 39.4 µM | SN12C 44.8 µM | T47D 41.6 µM | M14 42.1 µM | MDA-N 38.1 µM | IGROV-1 25.9 µM | NCI/ADR-RES 28.5 µM | Malme-3M 20.8 µM | HCT-116 23.7 µM | SK-MEL-28 > 100 µM | BT-549 37.8 µM | MDA-MB-231 51.3 µM

O=C1C(NCCc2cc(Cl)c(O)c(Cl)c2)=CC(=O)c2[nH]cnc21
inactive: PC-3 45.9 µM | OVCAR-5 88.7 µM | RPMI-8226 46.7 µM | NCI-H23 17.9 µM | SR 32.6 µM | OVCAR-3 17.7 µM | U-251 39.7 µM | SN12C 30 µM | T47D 21.7 µM | M14 10.7 µM | MDA-N 19.6 µM | IGROV-1 18.5 µM | NCI/ADR-RES > 100 µM | Malme-3M 4.57 µM | HCT-116 27.1 µM | NCI-H522 12.8 µM | SK-MEL-28 28 µM | BT-549 33.7 µM | MDA-MB-231 31 µM

CCOC(=O)c1c(NC(=O)c2ccc(Br)cc2)sc2c1CCCC2
inactive: PC-3 > 100 µM | RXF 393 > 100 µM | OVCAR-5 > 100 µM | RPMI-8226 > 100 µM | NCI-H23 > 100 µM | SR > 100 µM | OVCAR-3 > 100 µM | U-251 > 100 µM | SN12C > 100 µM | T47D > 100 µM | M14 > 100 µM | MDA-N > 100 µM | IGROV-1 97.1 µM | HCT-116 > 100 µM | SK-MEL-28 > 100 µM | BT-549 > 100 µM | MDA-MB-231 > 100 µM

N#CC(Cc1ccccc1)N(CCC1=CCCCC1)Cc1ccccc1 (stereo not given)
inactive: PC-3 51.1 µM | RXF 393 46.1 µM | OVCAR-5 97.7 µM | RPMI-8226 17.9 µM | NCI-H23 56.8 µM | OVCAR-3 81.7 µM | U-251 81.7 µM | T47D 47.3 µM | M14 44.6 µM | MDA-N 32.4 µM | IGROV-1 81.1 µM | NCI/ADR-RES 59.6 µM | Malme-3M 40.8 µM | HCT-116 36.8 µM | NCI-H522 25.3 µM | SK-MEL-28 68.4 µM | BT-549 71.9 µM | MDA-MB-231 > 100 µM

O=C(O)Cn1ccc(=O)c2cc([N+](=O)[O-])ccc21
inactive: PC-3 > 100 µM | OVCAR-5 > 100 µM | NCI-H23 > 100 µM | SR > 100 µM | OVCAR-3 > 100 µM | U-251 > 100 µM | SN12C > 100 µM | T47D 33.1 µM | M14 > 100 µM | MDA-N > 100 µM | IGROV-1 > 100 µM | NCI/ADR-RES > 100 µM | Malme-3M > 100 µM | HCT-116 > 100 µM | NCI-H522 > 100 µM | SK-MEL-28 > 100 µM | BT-549 > 100 µM | MDA-MB-231 19.4 µM

CCC(C)C1(O)OC2CC3(C)OC(=CC3=O)/C(C)=C\C3OC(=O)C1(C)C32 (stereo not given)
inactive: PC-3 37.2 µM | OVCAR-5 28.3 µM | RPMI-8226 7.1 µM | NCI-H23 5.53 µM | SR 5 µM | OVCAR-3 10.4 µM | U-251 27.5 µM | SN12C 11.8 µM | T47D 15 µM | M14 21.1 µM | MDA-N 1.73 µM | IGROV-1 18.8 µM | NCI/ADR-RES 17.2 µM | HCT-116 6.47 µM | NCI-H522 3.92 µM | SK-MEL-28 14.3 µM | BT-549 3.57 µM | MDA-MB-231 19.1 µM

Cc1ccc(S(=O)(=O)c2ccsc2NC(=O)C(F)(F)F)cc1
inactive: PC-3 37.6 µM | OVCAR-5 50.1 µM | RPMI-8226 8.02 µM | NCI-H23 34.5 µM | OVCAR-3 42.6 µM | U-251 70.8 µM | SN12C 25.2 µM | T47D 39.3 µM | M14 43.4 µM | MDA-N 23.6 µM | IGROV-1 62.8 µM | NCI/ADR-RES 31.7 µM | Malme-3M 40.7 µM | HCT-116 28.6 µM | NCI-H522 24.4 µM | SK-MEL-28 93.5 µM | BT-549 40.3 µM | MDA-MB-231 24.5 µM
